Results published in ChEMBL document CHEMBL4052740, “Potent antiobesity effect of a short-length peptide YY-analogue continuously administered in mice” (Bioorg Med Chem Lett, 2017).
Where a SMILES comes first, the peptide text is derived from it. [ ]: non-standard residue; d: D form. Cha = N[C@@H](CC1CCCCC1)C(=O)O; Aib = CC(C)(N)C(=O)O

Tests used:
[1] = target: T1, Neuropeptide Y receptor type 2 (Homo sapiens, UniProt P49146); experiment: Agonist activity at human Y2 receptor expressed in CHO cell membranes after 120 mins by [35S]GTPgammaS binding assay; type: functional
T1 sequence (P49146 whole entry): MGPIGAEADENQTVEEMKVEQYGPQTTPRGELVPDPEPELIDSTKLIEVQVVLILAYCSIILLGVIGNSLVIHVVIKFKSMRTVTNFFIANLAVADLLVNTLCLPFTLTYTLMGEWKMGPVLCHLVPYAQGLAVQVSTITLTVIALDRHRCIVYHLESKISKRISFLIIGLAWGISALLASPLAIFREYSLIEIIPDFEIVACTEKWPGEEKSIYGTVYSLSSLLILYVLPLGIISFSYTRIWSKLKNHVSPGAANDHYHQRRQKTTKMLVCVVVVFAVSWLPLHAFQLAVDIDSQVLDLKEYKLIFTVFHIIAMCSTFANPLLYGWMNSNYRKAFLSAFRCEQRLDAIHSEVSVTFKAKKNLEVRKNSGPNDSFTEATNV

[2] = target: T1, Neuropeptide Y receptor type 2; experiment: Displacement of [125I]peptide YY from human Y2 receptor expressed in CHO cell membranes after 60 mins by TopCount scintillation counting analysis
[3] = system: Mus musculus; experiment: Anorectic activity in C57BL/6J mouse assessed as inhibition of food intake at 1 mg/kg/day, sc administered by infusion as continuous dosing for 3 days relative to 1 mg/kg/day PYY (3 to 36 residues); type: functional; details: 72 h

## CC(=O)N[C@@H](CO)C(=O)N1CCC[C@@H]1C(=O)N[C@@H](CCCNC(=N)N)C(=O)N[C@@H](Cc1cnc[nH]1)C(=O)N[C@@H](CCC(N)=O)C(=O)N[C@@H](CC1CCCCC1)C(=O)N[C@@H](CC(N)=O)C(=O)N[C@@H](CC(C)C)C(=O)NC(C)(C)C(=O)N[C@H](C(=O)N[C@@H](CCCNC(=N)N)C(=O)N[C@@H](CCC(N)=O)C(=O)N[C@@H](CCCNC(=N)N)C(=O)N[C@@H](CC1CCCCC1)C(N)=O)[C@@H](C)O
[1]
  EC50: 4.4 nM
[2]
  IC50: 8.7 nM

## CC(=O)N[C@@H](CO)C(=O)N1CCC[C@@H]1C(=O)N[C@@H](CCCNC(=N)N)C(=O)N[C@@H](Cc1cnc[nH]1)C(=O)NC(C)(C)C(=O)N[C@@H](CC1CCCCC1)C(=O)N[C@@H](CC(N)=O)C(=O)N[C@@H](CC(C)C)C(=O)NC(C)(C)C(=O)N[C@H](C(=O)N[C@@H](CCCNC(=N)N)C(=O)N[C@@H](CCC(N)=O)C(=O)N[C@@H](CCCNC(=N)N)C(=O)N[C@@H](CC1CCCCC1)C(N)=O)[C@@H](C)O
[1]
  EC50: 1.7 nM
[2]
  IC50: 2.6 nM

## CC(=O)N[C@@H](CO)C(=O)N1CCC[C@@H]1C(=O)N[C@@H](CCCNC(=N)N)C(=O)N[C@@H](CCC(N)=O)C(=O)N[C@@H](CC1CCCCC1)C(=O)N[C@@H](CC1CCCCC1)C(=O)N[C@@H](CC(N)=O)C(=O)N[C@@H](CC(C)C)C(=O)NC(C)(C)C(=O)N[C@H](C(=O)N[C@@H](CCCNC(=N)N)C(=O)N[C@@H](CCC(N)=O)C(=O)N[C@@H](CCCNC(=N)N)C(=O)N[C@@H](CC1CCCCC1)C(N)=O)[C@@H](C)O
[1]
  EC50: 0.42 nM
[3]
  inhibition in vivo at 1 mg/kg/day: 55%
[2]
  IC50: 1.1 nM

## CC(=O)N[C@@H](CO)C(=O)N1CCC[C@@H]1C(=O)N[C@@H](CCCNC(=N)N)C(=O)N[C@@H](Cc1cnc[nH]1)C(=O)N[C@@H](CC1CCCCC1)C(=O)N[C@@H](Cc1ccncc1)C(=O)N[C@@H](CC(N)=O)C(=O)N[C@@H](CC(C)C)C(=O)NC(C)(C)C(=O)N[C@H](C(=O)N[C@@H](CCCNC(=N)N)C(=O)N[C@@H](CCC(N)=O)C(=O)N[C@@H](CCCNC(=N)N)C(=O)N[C@@H](CC1CCCCC1)C(N)=O)[C@@H](C)O
[1]
  EC50: 0.75 nM
[3]
  inhibition in vivo at 1 mg/kg/day: 41%
[2]
  IC50: 2.5 nM

## CC(=O)N[C@@H](CO)C(=O)N1CCC[C@@H]1C(=O)N[C@@H](CCCNC(=N)N)C(=O)N[C@@H](Cc1cnc[nH]1)C(=O)N[C@@H](CC1CCCCC1)C(=O)N[C@@H](CC1CCCCC1)C(=O)N[C@@H](CC(N)=O)C(=O)N[C@@H](CC(C)C)C(=O)NC(C)(C)C(=O)N[C@H](C(=O)N[C@@H](CCCNC(=N)N)C(=O)N[C@@H](CCC(N)=O)C(=O)N[C@@H](CCCNC(=N)N)C(=O)N[C@@H](CC1CCCCC1)C(N)=O)[C@@H](C)O (Ac-S[dP]RH[Cha][Cha]NL[Aib]TRQR[Cha]-NH2)
[1]
  EC50: 0.61 nM
[3]
  inhibition in vivo at 1 mg/kg/day: 33%
[2]
  IC50: 1.5 nM

## CC(=O)N[C@@H](CO)C(=O)N1CCC[C@@H]1C(=O)N[C@@H](CCCNC(=N)N)C(=O)N[C@@H](Cc1cnc[nH]1)C(=O)N[C@@H](CC1CCCCC1)C(=O)N[C@@H](Cc1cnc[nH]1)C(=O)N[C@@H](CC(N)=O)C(=O)N[C@@H](CC(C)C)C(=O)NC(C)(C)C(=O)N[C@H](C(=O)N[C@@H](CCCNC(=N)N)C(=O)N[C@@H](CCC(N)=O)C(=O)N[C@@H](CCCNC(=N)N)C(=O)N[C@@H](CC1CCCCC1)C(N)=O)[C@@H](C)O
[1]
  EC50: 1 nM
[2]
  IC50: 2.8 nM

## CC(=O)N[C@@H](CO)C(=O)N1CCC[C@@H]1C(=O)N[C@@H](CCCNC(=N)N)C(=O)N[C@@H](Cc1ccncc1)C(=O)N[C@@H](CC1CCCCC1)C(=O)N[C@@H](CC1CCCCC1)C(=O)N[C@@H](CC(N)=O)C(=O)N[C@@H](CC(C)C)C(=O)NC(C)(C)C(=O)N[C@H](C(=O)N[C@@H](CCCNC(=N)N)C(=O)N[C@@H](CCC(N)=O)C(=O)N[C@@H](CCCNC(=N)N)C(=O)N[C@@H](CC1CCCCC1)C(N)=O)[C@@H](C)O
[1]
  EC50: 0.19 nM
[3]
  inhibition in vivo at 1 mg/kg/day: 72%
[2]
  IC50: 0.49 nM

## CC(=O)N[C@@H](CO)C(=O)N1CCC[C@@H]1C(=O)N[C@@H](CCCNC(=N)N)C(=O)N[C@@H](Cc1cnc[nH]1)C(=O)N[C@@H](Cc1ccc(O)cc1)C(=O)N[C@@H](CC1CCCCC1)C(=O)N[C@@H](CC(N)=O)C(=O)N[C@@H](CC(C)C)C(=O)NC(C)(C)C(=O)N[C@H](C(=O)N[C@@H](CCCNC(=N)N)C(=O)N[C@@H](CCC(N)=O)C(=O)N[C@@H](CCCNC(=N)N)C(=O)N[C@@H](CC1CCCCC1)C(N)=O)[C@@H](C)O
[1]
  EC50: 2.5 nM
[2]
  IC50: 5.3 nM

## CC(=O)N[C@@H](CO)C(=O)N1CCC[C@@H]1C(=O)N[C@@H](CCCNC(=N)N)C(=O)N[C@@H](Cc1cnc[nH]1)C(=O)N[C@@H](CC1CCCCC1)C(=O)N[C@@H](CC1CCCCC1)C(=O)N[C@@H](CC(N)=O)C(=O)N[C@@H](CCCNC(=N)N)C(=O)NC(C)(C)C(=O)N[C@H](C(=O)N[C@@H](CCCNC(=N)N)C(=O)N[C@@H](CCC(N)=O)C(=O)N[C@@H](CCCNC(=N)N)C(=O)N[C@@H](CC1CCCCC1)C(N)=O)[C@@H](C)O
[1]
  EC50: 0.16 nM
[3]
  inhibition in vivo at 1 mg/kg/day: 59%
[2]
  IC50: 0.6 nM

## CC(=O)N[C@@H](CO)C(=O)N1CCC[C@@H]1C(=O)N[C@@H](CCCNC(=N)N)C(=O)N[C@@H](Cc1cnc[nH]1)C(=O)N[C@@H](Cc1ccncc1)C(=O)N[C@@H](CC1CCCCC1)C(=O)N[C@@H](CC(N)=O)C(=O)N[C@@H](CC(C)C)C(=O)NC(C)(C)C(=O)N[C@H](C(=O)N[C@@H](CCCNC(=N)N)C(=O)N[C@@H](CCC(N)=O)C(=O)N[C@@H](CCCNC(=N)N)C(=O)N[C@@H](CC1CCCCC1)C(N)=O)[C@@H](C)O
[1]
  EC50: 1.8 nM
[2]
  IC50: 6 nM

## CC(=O)N[C@@H](CO)C(=O)N1CCC[C@@H]1C(=O)N[C@@H](CCCNC(=N)N)C(=O)N[C@@H](Cc1cnc[nH]1)C(=O)N[C@@H](Cc1cnc[nH]1)C(=O)N[C@@H](CC1CCCCC1)C(=O)N[C@@H](CC(N)=O)C(=O)N[C@@H](CC(C)C)C(=O)NC(C)(C)C(=O)N[C@H](C(=O)N[C@@H](CCCNC(=N)N)C(=O)N[C@@H](CCC(N)=O)C(=O)N[C@@H](CCCNC(=N)N)C(=O)N[C@@H](CC1CCCCC1)C(N)=O)[C@@H](C)O
[1]
  EC50: 3.8 nM
[2]
  IC50: 11 nM

## CC(=O)N[C@@H](CO)C(=O)N1CCC[C@@H]1C(=O)N[C@@H](CCCNC(=N)N)C(=O)N[C@@H](Cc1cnc[nH]1)C(=O)N[C@@H](CC1CCCCC1)C(=O)N[C@@H](CC1CCCCC1)C(=O)N[C@@H](CC(N)=O)C(=O)N[C@@H](Cc1ccncc1)C(=O)NC(C)(C)C(=O)N[C@H](C(=O)N[C@@H](CCCNC(=N)N)C(=O)N[C@@H](CCC(N)=O)C(=O)N[C@@H](CCCNC(=N)N)C(=O)N[C@@H](CC1CCCCC1)C(N)=O)[C@@H](C)O
[1]
  EC50: 0.48 nM
[2]
  IC50: 3 nM

## CCCC[C@H](NC(=O)[C@H](CC(N)=O)NC(=O)[C@H](CC1CCCCC1)NC(=O)[C@H](CC1CCCCC1)NC(=O)[C@H](Cc1cnc[nH]1)NC(=O)[C@H](CCCNC(=N)N)NC(=O)[C@H]1CCCN1C(=O)[C@H](CO)NC(C)=O)C(=O)NC(C)(C)C(=O)N[C@H](C(=O)N[C@@H](CCCNC(=N)N)C(=O)N[C@@H](CCC(N)=O)C(=O)N[C@@H](CCCNC(=N)N)C(=O)N[C@@H](CC1CCCCC1)C(N)=O)[C@@H](C)O
[1]
  EC50: 0.21 nM
[2]
  IC50: 1.3 nM

## CC(=O)N[C@@H](CO)C(=O)N1CCC[C@@H]1C(=O)N[C@@H](CCCNC(=N)N)C(=O)N[C@@H](Cc1cnc[nH]1)C(=O)N[C@@H](CC1CCCCC1)C(=O)N[C@@H](CC1CCCCC1)C(=O)N[C@@H](CC(N)=O)C(=O)N[C@@H](CO)C(=O)NC(C)(C)C(=O)N[C@H](C(=O)N[C@@H](CCCNC(=N)N)C(=O)N[C@@H](CCC(N)=O)C(=O)N[C@@H](CCCNC(=N)N)C(=O)N[C@@H](CC1CCCCC1)C(N)=O)[C@@H](C)O
[1]
  EC50: 0.6 nM
[2]
  IC50: 2.3 nM
